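Where inhibition never reached the appropriate level, the endpoint shown equals the highest concentration tested. Otherwise, values were interpolated linearly from a five-concentration, 48-hour dose response in 96-well plates. TGI marks complete inhibition of growth.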
Columns and labels:
Assay in all cases: NCI tumour cell line growth inhibition, 48 h
M19-MEL melanoma = tested on: M19-MEL melanoma
LXFL 529 NSCLC = tested on: LXFL 529 NSCLC
RXF-631 renal = tested on: RXF-631 renal
SNB-78 CNS = tested on: SNB-78 CNS
P388 leukemia = tested on: P388 leukemia
SN12K1 renal = tested on: SN12K1 renal
P388/ADR leukemia = tested on: P388/ADR leukemia
DMS 273 small cell lung = tested on: DMS 273 small cell lung

SMILES | TGI (M19-MEL melanoma) | TGI (LXFL 529 NSCLC) | TGI (RXF-631 renal) | TGI (SNB-78 CNS) | TGI (P388 leukemia) | TGI (SN12K1 renal) | TGI (P388/ADR leukemia) | TGI (DMS 273 small cell lung)
CCOC(=O)C1=C(C)N(C2OC(COC(C)=O)C(OC(C)=O)C(OC(C)=O)C2OC(C)=O)C(=O)NC1c1ccccc1 (configuration not stated) | > 100 µM | > 100 µM | > 100 µM | > 100 µM | – | – | – | –
CCOC(=O)/C=C/c1c[nH]c(=O)[nH]c1=O | > 75 µM | – | – | > 75 µM | > 75 µM | > 75 µM | > 75 µM | > 75 µM
CC(=O)OCc1nnn2c1CCC2 | > 100 µM | > 100 µM | – | > 100 µM | – | – | – | –
COc1ccc(OCC(C)(C)O)cc1 | – | – | – | > 100 µM | > 100 µM | > 100 µM | – | > 100 µM

Reference: PubChem BioAssay (NCI)
